From US6737383B1, “Herbicidal oxadiazolidines” (priority 1999, dated 2004)

Tests used:
smallflower flatsedge = test: Test B flood test smallflower flatsedge; type: in vivo, Cyperus difformis
In short: (§1)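 Flood test on plants grown to the 2-leaf stage; treated plants kept in greenhouse twelve to sixteen days, then visually rated against controls on a 0 (no effect) to 10 (complete control) scale.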

sugar beet = test: Test B pre/postemergence sugar beet; type: in vivo, Beta vulgaris
In short: (§2)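 Test chemicals in a non-phytotoxic solvent mixture with surfactant were sprayed preemergence onto planted seeds and postemergence onto plants 2 to 18 cm tall (1- to 4-leaf stage). After twelve to sixteen days in a greenhouse, injury was visually rated against untreated controls from 0 (no effect) to 10 (complete control).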

soybean = test: Test B pre/postemergence soybean; type: in vivo, Glycine max
In short: as §2

crabgrass = test: Test B pre/postemergence crabgrass; type: in vivo, Digitaria sanguinalis
In short: as §2

blackgrass = test: Test B pre/postemergence blackgrass; type: in vivo, Alopecurus myosuroides
In short: as §2

velvetleaf = test: Test B pre/postemergence velvetleaf; type: in vivo, Abutilon theophrasti
In short: as §2

purple nutsedge = test: Test B pre/postemergence purple nutsedge; type: in vivo, Cyperus rotundus
In short: as §2

bamyardgrass = test: Test B flood test barnyardgrass; type: in vivo, Echinochloa crus-galli
In short: as §1

cocklebur = test: Test B pre/postemergence cocklebur; type: in vivo, Xanthium strumarium
In short: as §2

wild oat = test: Test B pre/postemergence wild oat; type: in vivo, Avena fatua
In short: as §2

corn = test: Test B pre/postemergence corn; type: in vivo, Zea mays
In short: as §2

rape = test: Test B pre/postemergence rape; type: in vivo, Brassica napus
In short: as §2

wheat = test: Test B pre/postemergence wheat; type: in vivo, Triticum aestivum
In short: as §2

surinam grass = test: Test B pre/postemergence surinam grass; type: in vivo, Brachiaria decumbens
In short: as §2

pigweed = test: Test B pre/postemergence pigweed; type: in vivo, Amaranthus retroflexus
In short: as §2

[1] = Rate 62 g/ha, flood test species, Pre-emergence, visual evaluation after twelve to sixteen days
[2] = Rate 125 g/ha, under heading Pre-emergence, flood test species, visual evaluation after twelve to sixteen days
[3] = Rate 250 g/ha, Pre-emergence (flood test species), scale 0 to 10, 0 is no effect, 10 is complete control
[4] = Rate 500 g/ha, Pre-emergence section of Table B, 0 to 10 scale (0 no effect, 10 complete control)
[5] = Postemergence, Rate 62 g/ha, scale 0 to 10, 0 is no effect, 10 is complete control
[6] = Postemergence, Rate 125 g/ha, scale of 0 to 10 where 0 is no effect and 10 is complete control
[7] = Postemergence, Rate 250 g/ha, scale of 0 to 10, 0 is no effect, 10 is complete control
[8] = Preemergence, Rate 62 g/ha, scale of 0 to 10 where 0 is no effect and 10 is complete control
[9] = Preemergence, Rate 125 g/ha, scale of 0 to 10 where 0 is no effect and 10 is complete control
[10] = Preemergence, Rate 250 g/ha, scale 0 to 10 (0 no effect, 10 complete control)
[11] = Preemergence, Rate 500 g/ha, scale of 0 to 10 where 0 is no effect and 10 is complete control
[12] = Postemergence, Rate 500 g/ha, scale of 0 to 10 where 0 is no effect and 10 is complete control

CC(C)N(C(=O)n1oc(=O)n(CC(=O)C2CCC2)c1=O)c1ccc(Cl)cc1 [Compound 643]
Plant response rating, S. Flatsedge (0 to 10 scale, 0 is no effect, 10 is complete control) (smallflower flatsedge; [1]): 0
S. Flatsedge plant response rating (0 to 10 scale, 0 is no effect, 10 is complete control) (smallflower flatsedge; [2]): 0
S. Flatsedge plant response rating (smallflower flatsedge; [3]): 0
S. Flatsedge plant response rating (smallflower flatsedge; [4]): 0
Plant response rating, Sugarbeets (sugar beet; [5]): 0
Sugarbeets plant response rating (sugar beet; [6]): 0
Sugarbeets plant response rating (sugar beet; [7]): 0
Sugarbeets plant response rating (sugar beet; [8]): 0
Sugarbeets plant response rating (sugar beet; [9]): 0
Plant response rating, Sugarbeets (sugar beet; [10]): 0
Plant response rating, Sugarbeets (sugar beet; [11]): 0
Plant response rating, Soybean (soybean; [5]): 1
Soybean plant response rating (soybean; [6]): 1
Soybean plant response rating (soybean; [7]): 1
Soybean plant response rating (soybean; [8]): 0
Soybean plant response rating (soybean; [9]): 0
Plant response rating, Soybean (soybean; [10]): 0
Plant response rating, Soybean (soybean; [11]): 0
Plant response rating, Crabgrass (crabgrass; [5]): 0
Crabgrass plant response rating (crabgrass; [6]): 0
Crabgrass plant response rating (crabgrass; [7]): 0
Plant response rating, Crabgrass (crabgrass; [12]): 6
Crabgrass plant response rating (crabgrass; [8]): 0
Crabgrass plant response rating (crabgrass; [9]): 3
Plant response rating, Crabgrass (crabgrass; [10]): 9
Plant response rating, Crabgrass (crabgrass; [11]): 10
Plant response rating, Blackgrass (blackgrass; [5]): 0
Blackgrass plant response rating (blackgrass; [6]): 0
Blackgrass plant response rating (blackgrass; [7]): 0
Plant response rating, Blackgrass (blackgrass; [12]): 4
Blackgrass plant response rating (blackgrass; [8]): 0
Blackgrass plant response rating (blackgrass; [9]): 0
Plant response rating, Blackgrass (blackgrass; [10]): 0
Plant response rating, Blackgrass (blackgrass; [11]): 8
Plant response rating, Velvetleaf (velvetleaf; [5]): 0
Velvetleaf plant response rating (velvetleaf; [6]): 0
Velvetleaf plant response rating (velvetleaf; [7]): 0
Velvetleaf plant response rating (velvetleaf; [8]): 0
Velvetleaf plant response rating (velvetleaf; [9]): 0
Plant response rating, Velvetleaf (velvetleaf; [10]): 0
Plant response rating, Velvetleaf (velvetleaf; [11]): 0
Plant response rating, Nutsedge (purple nutsedge; [5]): 0
Nutsedge plant response rating (purple nutsedge; [6]): 0
Nutsedge plant response rating (purple nutsedge; [7]): 0
Plant response rating, Nutsedge (purple nutsedge; [12]): 0
Nutsedge plant response rating (purple nutsedge; [8]): 0
Nutsedge plant response rating (purple nutsedge; [9]): 0
Plant response rating, Nutsedge (purple nutsedge; [10]): 0
Plant response rating, Nutsedge (purple nutsedge; [11]): 0
Plant response rating, Barnyardgrass (0 to 10 scale, 0 is no effect, 10 is complete control) (bamyardgrass; [1]): 0
Barnyardgrass plant response rating (0 to 10 scale, 0 is no effect, 10 is complete control) (bamyardgrass; [2]): 0
Barnyardgrass plant response rating (bamyardgrass; [3]): 0
Barnyardgrass plant response rating (bamyardgrass; [4]): 0
Plant response rating, Cocklebur (cocklebur; [5]): 0
Cocklebur plant response rating (cocklebur; [6]): 0
Cocklebur plant response rating (cocklebur; [7]): 0
Plant response rating, Cocklebur (cocklebur; [12]): 0
Cocklebur plant response rating (cocklebur; [8]): 0
Cocklebur plant response rating (cocklebur; [9]): 0
Plant response rating, Cocklebur (cocklebur; [10]): 0
Plant response rating, Cocklebur (cocklebur; [11]): 0
Plant response rating, Wild oats (wild oat; [5]): 0
Wild oats plant response rating (wild oat; [6]): 1
Wild oats plant response rating (wild oat; [7]): 1
Wild oats plant response rating (wild oat; [8]): 0
Wild oats plant response rating (wild oat; [9]): 0
Plant response rating, Wild oats (wild oat; [10]): 0
Plant response rating, Wild oats (wild oat; [11]): 1
Plant response rating, Corn (corn; [5]): 0
Corn plant response rating (corn; [6]): 0
Corn plant response rating (corn; [7]): 0
Plant response rating, Corn (corn; [12]): 0
Corn plant response rating (corn; [8]): 0
Corn plant response rating (corn; [9]): 0
Plant response rating, Corn (corn; [10]): 0
Plant response rating, Corn (corn; [11]): 0
Rape plant response rating (rape; [6]): 0
Rape plant response rating (rape; [7]): 0
Plant response rating, Rape (rape; [12]): 0
Rape plant response rating (rape; [8]): 0
Rape plant response rating (rape; [9]): 0
Plant response rating, Rape (rape; [10]): 0
Plant response rating, Rape (rape; [11]): 6
Plant response rating, Wheat (wheat; [5]): 0
Wheat plant response rating (wheat; [6]): 0
Wheat plant response rating (wheat; [7]): 0
Wheat plant response rating (wheat; [8]): 0
Wheat plant response rating (wheat; [9]): 0
Plant response rating, Wheat (wheat; [10]): 0
Plant response rating, Wheat (wheat; [11]): 0
Plant response rating, B. signalgrass (surinam grass; [5]): 0
Plant response rating, B. signalgrass (surinam grass; [6]): 0
B. signalgrass plant response rating (surinam grass; [7]): 0
Plant response rating, B. signalgrass (surinam grass; [12]): 2
B. signalgrass plant response rating (surinam grass; [8]): 0
B. signalgrass plant response rating (surinam grass; [9]): 2
Plant response rating, B. signalgrass (surinam grass; [10]): 2
Plant response rating, B. signalgrass (surinam grass; [11]): 6
Plant response rating, Redroot pigweed (pigweed; [5]): 0
Redroot pigweed plant response rating (pigweed; [6]): 0
Redroot pigweed plant response rating (pigweed; [7]): 0
Redroot pigweed plant response rating (pigweed; [8]): 0
Redroot pigweed plant response rating (pigweed; [9]): 0
Plant response rating, Redroot pigweed (pigweed; [10]): 0
Plant response rating, Redroot pigweed (pigweed; [11]): 5
